Type in all cases: cell-based, human
The subject of assay [1] is A498 cells (proteolytic activity). Kind of assay: Cell proteolytic activity towards Ac-PLVQ-AMC, A498. To be noted: 30 min peptide, then 10 min Ac-PLVQ-AMC; fluorescence microscopy and fluorimetric analysis. As for the experimental part:
To evaluate the inhibitory properties of the peptides directly on the human renal cancer cells, we firstly assessed the impact of Ac-PLVE-FMK and Ac-VLPE-FMK on the cell viability of 769-P and A498 cells to determine the working concentrations for further experiments. […] Further experiments were performed using a concentration of 20 μM. To understand if the peptides could affect the activity of caspase proteases, we tested their effect on cell viability in combination with the chemotherapeutic paclitaxel (PXT) in both the cell lines. […] Next, we evaluated the effect of the peptides on renal cancer cell proteolytic activity against the fluorogenic probe Ac-PLVQ-AMC. In this case, 769-p and A498 cells were treated for 30 min with Ac-PLVE-FMK or Ac-VLPE-FMK and were then exposed for 10 min to the substrate Ac-PLVQ-AMC prior fluorescence microscopy analysis (Figure 3c,d).
Figure 3 The effect of the peptide inhibitors on human 769-P and A498 renal cancer cell proliferation and proteolytic activity. […] Cell proliferation was measured after 24, 48, and 72 h via MTT (3-(4,5-dimethylthiazol-2-yl)-2,5-diphenyltetrazolium bromide) assay. […] (c) Fluorescence microscopy evaluation and quantification of the cell proteolytic activity in 769-P and (d) A498 cells towards the fluorogenic substrate Ac-PLVQ-AMC in the absence or presence of Ac-PLVE-FMK and Ac-VLPE-FMK. […]

In a further assay the test system is A498 cells. Kind of assay: Cell viability/proliferation (MTT), A498. To be noted: 2.5–250 μM; for Cell viability: 72 h; for Effect on cell proliferation: within 48 h. The protocol: (§1) Figure 3 The effect of the peptide inhibitors on human 769-P and A498 renal cancer cell proliferation and proteolytic activity. (a) 769-P and (b) A498 cells were treated with increasing doses of Ac-PLVE-FMK (red bars) and Ac-VLPE-FMK (blue bars) (2.5–250 μM). Cell proliferation was measured after 24, 48, and 72 h via MTT (3-(4,5-dimethylthiazol-2-yl)-2,5-diphenyltetrazolium bromide) assay. Data represent the mean (±S.D.) of at least three independent experiments, each performed in triplicate. (c) Fluorescence microscopy evaluation and quantification of the cell proteolytic activity in 769-P and (d) A498 cells towards the fluorogenic substrate Ac-PLVQ-AMC in the absence or presence of Ac-PLVE-FMK and Ac-VLPE-FMK. The cells were seeded in a 96-well plate and after exposure to the peptides for 30 min prior incubation with the fluorescent substrate Ac-PLVQ-AMC for 10 min. Data are expressed as mean (±S.D.), and significance was calculated through one-way ANOVA followed by Dunnet’s test. * = p < 0.05, ** = p < 0.01, *** = p < 0.001.
(§2) The human renal cancer cell line lines […], A498 were obtained from Dr. Vadim Pokrovsky (purchased from American Type Culture Collection). The cells were cultured in RPMI 1640, supplemented with 10% fetal bovine serum and 1% mixture of antibiotics penicillin-streptomycin (all from Gibco, Waltham, MA, USA) at 5% CO2 and 37 °C in a humidified chamber. Cells were grown to confluence and harvested by trypsinization, using a 0.25 mg/mL trypsin/EDTA solution (ThermoFisher, Carlsbad, CA, USA) and resuspended in the fresh culture medium. Viable cells were enumerated on the Countess II FL Automated Cell Counter (ThermoFisher, Waltham, MA, USA), following Trypan Blue staining. The cell lines were tested for mycoplasma contamination regularly, using the Molecular Probes™ MycoFluor Mycoplasma Detection Kit (ThermoFisher, Waltham, MA, USA).
(§3) The cell number was evaluated by counting viable cells using the MTT (3-(4,5-dimethylthiazol-2-yl)-2,5-diphenyltetrazolium bromide) colorimetric assay. A total of 2 × 10^4 cells/well were seeded on independent 96-well plates for each time point (0, 24, 48, and 72 h), with five replicates and treated with two inhibitors (2.5–250 μM). Then, 10 µL of the MTT reagent was added to each well, and cells were incubated for another 5 h. Next, the absorbance value was measured using a CLARIOstar® Plus plate reader (BMG Labtech, Ortenberg, Germany) at 490 nm. Triplicate wells were assayed, and S.D.s were determined.

The subject of the next assay is 769-P cells. In words: Cell viability/proliferation (MTT), 769-P. To be noted: 2.5–250 μM; for Cell viability: 72 h; for Effect on cell proliferation: within 48 h. As for the experimental part: as §1, §2, §3
Another assay deals with E-cadherin in A498 cells. Kind of assay: E-cadherin protein expression (western blot), A498. To be noted: first 48 h. As for the experimental part: These properties could be the result of the modulation of the effectors controlling EMT, as previously shown in other tumor models. To test this hypothesis, the cells were treated with the inhibitors for 24, 48, and 72 h by changing the media every day, and they were tested for E-cadherin and SNAIL1 expression (Figure 6; detail information of western blots can be seen in Supplementary Figure S7). Figure 6 Effects of the peptides on E-cadherin and SNAIL1 protein expression: (a,b) protein expression of E-cadherin and SNAIL1 in 769-P and (c,d) A498 cells after 24, 48, and 72 h of treatment with the peptides. Data are represented as mean ± SD of at least three replicates. Significance was calculated through one-way ANOVA, followed by Dunnet’s test. Cells were seeded in RPMI containing 10% FBS and cultured for 24 h. Next, 30 µM of inhibitors were added to the culture medium and incubated for 24, 48, and 72 h. Control cells were treated with 0.01% DMSO. At all time points the samples were lysed in 50 mM Tri-HCl (pH 8.0), 100 mM NaCl, 0.5% NP-40, 1% Triton X-100, 1× protease inhibitor cocktail (ThermoFisher, Waltham, MA, USA). The 50 µg of protein lysates were separated by electrophoresis on a 12% SDS-PAGE gel and transferred to the PFDF membranes. […] After an additional wash (three times with PBS), reactive bands were detected by chemiluminescence (Bio-Rad, Irvine, CA, USA). […]

*: point of attachment. CH2F = FC*

As to Ac-VLPE-CH2F [Ac-VLPE-FMK], the “Inhibition of probe degradation (cell proteolytic activity)” value in assay [1] is “significantly inhibited the probe degradation”. For the same substance, in the assay with A498 cells, the Cell viability result was “cell viability increased, reaching values not significantly different from the control cells” and the “Effect on cell proliferation” value is listed as “cytostatic properties on both cell lines only within 48 h of treatment”. Moreover, in the assay with 769-P cells, the Cell viability result is given as “cell viability increased, reaching values not significantly different from the control cells” and the “Effect on cell proliferation” value is on record as “cytostatic properties on both cell lines only within 48 h of treatment”. Further, in the assay with E-cadherin in A498 cells, the E-cadherin protein expression entry is reported as “increased the protein expression of E-cadherin in the first 48 h in both the cell lines”.

In the case of Ac-PLVE-CH2F [Ac-PLVE-FMK], the “Inhibition of probe degradation (cell proteolytic activity)” value in assay [1] is given as “significantly inhibited the probe degradation”. Further, in the assay with A498 cells, the Cell viability entry is “cell viability increased, reaching values not significantly different from the control cells” and the “Effect on cell proliferation” value is reported as “cytostatic properties on both cell lines only within 48 h of treatment”. In addition, in the assay with 769-P cells, the Cell viability entry is “cell viability increased, reaching values not significantly different from the control cells” and the “Effect on cell proliferation” value is “cytostatic properties on both cell lines only within 48 h of treatment”. Besides, the E-cadherin protein expression entry in the assay on E-cadherin in A498 cells is listed as “increased the protein expression of E-cadherin in the first 48 h in both the cell lines”.

For the origin of these results see publication PMC7281206, “Cysteine Cathepsins Inhibition Affects Their Expression and Human Renal Cancer Cell Phenotype” (Cancers, 2020).
